Reference: ChEMBL document CHEMBL1201862, “PubChem BioAssay data set” (2004)
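Step 1: Grow cells in 96-well plates. Step 2: Expose to compound for 48 hours at 5 concentrations. Step 3: Interpolate endpoints linearly; if unreached, use highest concentration. Here, GI50 denotes the concentration required for 50% inhibition of growth.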 Active and inactive are the calls of the source. Cut-off read from the data, not from the text of the source: active = GI50 up to about 1.1 µM and inactive = higher.

Experiments:
Experiment in all cases: NCI anticancer screen, dose series, 48 h
[1] = test system: 786-0
[2] = test system: A498
[3] = test system: A549
[4] = test system: ACHN
[5] = test system: CAKI-1
[6] = test system: CCRF-CEM
[7] = test system: COLO 205
[8] = test system: DLD-1
[9] = test system: DMS-114
[10] = test system: DMS-273
[11] = test system: EKVX
[12] = test system: HCC 2998
[13] = test system: HCT-116
[14] = test system: HCT-15
[15] = test system: HL-60
[16] = test system: HOP-18
[17] = test system: HOP-62
[18] = test system: HOP-92
[19] = test system: HT-29
[20] = test system: IGROV-1
[21] = test system: K562
[22] = test system: KM-20L2
[23] = test system: KM12
[24] = test system: LOX IMVI
[25] = test system: LXFL 529
[26] = test system: M14
[27] = test system: M19-MEL
[28] = test system: Malme-3M
[29] = test system: NCI-H226
[30] = test system: NCI-H23
[31] = test system: NCI-H460
[32] = test system: NCI-H522
[33] = test system: OVCAR-3
[34] = test system: OVCAR-4
[35] = test system: OVCAR-5
[36] = test system: OVCAR-8
[37] = test system: RPMI-8226
[38] = test system: RXF 393
[39] = test system: SF-268
[40] = test system: SF-295
[41] = test system: SF-539
[42] = test system: SK-MEL-28
[43] = test system: SK-MEL-2
[44] = test system: SK-MEL-5
[45] = test system: SK-OV-3
[46] = test system: SN12C
[47] = test system: SNB-19
[48] = test system: SNB-75
[49] = test system: SNB-78
[50] = test system: SW-620
[51] = test system: TK-10
[52] = test system: U-251
[53] = test system: UACC-257
[54] = test system: UACC-62
[55] = test system: UO-31
[56] = test system: MOLT-4
[57] = test system: SR

C1CSCCSCCCS[C@@H]2CCCCC2SC1 (stereo partly drawn)
GI50 [1]: > 100 µM (inactive) | GI50 [2]: > 100 µM (inactive) | GI50 [3]: > 100 µM (inactive) | GI50 [4]: > 100 µM (inactive) | GI50 [5]: > 100 µM (inactive) | GI50 [6]: 20.8 µM (inactive) | GI50 [7]: 52.5 µM (inactive) | GI50 [8]: > 100 µM (inactive) | GI50 [9]: 28.2 µM (inactive) | GI50 [10]: > 100 µM (inactive) | GI50 [11]: > 100 µM (inactive) | GI50 [12]: > 100 µM (inactive) | GI50 [13]: > 100 µM (inactive) | GI50 [14]: 15.4 µM | GI50 [15]: 44.3 µM (inactive) | GI50 [16]: > 100 µM (inactive) | GI50 [17]: > 100 µM (inactive) | GI50 [18]: 65.2 µM (inactive) | GI50 [19]: > 100 µM (inactive) | GI50 [20]: > 100 µM (inactive) | GI50 [21]: 24.3 µM (inactive) | GI50 [22]: > 100 µM (inactive) | GI50 [23]: > 100 µM (inactive) | GI50 [24]: 24.2 µM (inactive) | GI50 [25]: > 100 µM (inactive) | GI50 [26]: > 100 µM (inactive) | GI50 [27]: > 100 µM (inactive) | GI50 [28]: > 100 µM (inactive) | GI50 [29]: > 100 µM (inactive) | GI50 [30]: > 100 µM (inactive) | GI50 [31]: 44.1 µM (inactive) | GI50 [32]: 25.9 µM (inactive) | GI50 [33]: > 100 µM (inactive) | GI50 [34]: > 100 µM (inactive) | GI50 [35]: > 100 µM (inactive) | GI50 [36]: > 100 µM (inactive) | GI50 [37]: 21 µM (inactive) | GI50 [38]: > 100 µM (inactive) | GI50 [39]: > 100 µM (inactive) | GI50 [40]: > 100 µM (inactive) | GI50 [41]: > 100 µM (inactive) | GI50 [42]: > 100 µM (inactive) | GI50 [43]: > 100 µM (inactive) | GI50 [44]: > 100 µM (inactive) | GI50 [45]: > 100 µM (inactive) | GI50 [46]: 72.4 µM (inactive) | GI50 [47]: > 100 µM (inactive) | GI50 [48]: > 100 µM (inactive) | GI50 [49]: > 100 µM (inactive) | GI50 [50]: 20.1 µM (inactive) | GI50 [51]: > 100 µM (inactive) | GI50 [52]: > 100 µM (inactive) | GI50 [53]: > 100 µM (inactive) | GI50 [54]: > 100 µM (inactive) | GI50 [55]: > 100 µM (inactive)

COc1ccc(C(C#N)NNc2nc(C)cc(O)n2)cc1OC (stereo not drawn)
GI50 [1]: > 100 µM (inactive) | GI50 [3]: > 100 µM (inactive) | GI50 [4]: > 100 µM (inactive) | GI50 [5]: > 100 µM (inactive) | GI50 [6]: > 100 µM (inactive) | GI50 [7]: > 100 µM (inactive) | GI50 [8]: > 100 µM (inactive) | GI50 [9]: > 100 µM (inactive) | GI50 [10]: > 100 µM (inactive) | GI50 [13]: > 100 µM (inactive) | GI50 [14]: > 100 µM | GI50 [15]: > 100 µM (inactive) | GI50 [16]: > 100 µM (inactive) | GI50 [17]: > 100 µM (inactive) | GI50 [18]: > 100 µM (inactive) | GI50 [19]: > 100 µM (inactive) | GI50 [20]: > 100 µM (inactive) | GI50 [21]: > 100 µM (inactive) | GI50 [22]: > 100 µM (inactive) | GI50 [23]: > 100 µM (inactive) | GI50 [24]: > 100 µM (inactive) | GI50 [25]: > 100 µM (inactive) | GI50 [26]: > 100 µM (inactive) | GI50 [27]: > 100 µM (inactive) | GI50 [56]: > 100 µM (inactive) | GI50 [28]: > 100 µM (inactive) | GI50 [29]: > 100 µM (inactive) | GI50 [30]: > 100 µM (inactive) | GI50 [31]: > 100 µM (inactive) | GI50 [32]: > 100 µM (inactive) | GI50 [33]: > 100 µM (inactive) | GI50 [34]: > 100 µM (inactive) | GI50 [35]: > 100 µM (inactive) | GI50 [36]: > 100 µM (inactive) | GI50 [37]: > 100 µM (inactive) | GI50 [38]: > 100 µM (inactive) | GI50 [39]: > 100 µM (inactive) | GI50 [40]: > 100 µM (inactive) | GI50 [41]: > 100 µM (inactive) | GI50 [42]: > 100 µM (inactive) | GI50 [43]: > 100 µM (inactive) | GI50 [44]: > 100 µM (inactive) | GI50 [45]: > 100 µM (inactive) | GI50 [46]: > 100 µM (inactive) | GI50 [48]: 71.9 µM (inactive) | GI50 [49]: > 100 µM (inactive) | GI50 [57]: > 100 µM (inactive) | GI50 [50]: > 100 µM (inactive) | GI50 [51]: > 100 µM (inactive) | GI50 [52]: > 100 µM (inactive) | GI50 [53]: > 100 µM (inactive) | GI50 [54]: > 100 µM (inactive) | GI50 [55]: > 100 µM (inactive)
